Reference: ChEMBL document CHEMBL1145676, “Isolation of two flavonoids from Tanacetum microphyllum as PMA-induced ear edema inhibitors” (1997)

Tests used:
Format in all cases: functional
Mus musculus [1] = experiment: Inhibition of PMA-induced ear edema in Swiss mouse at 3 mg/ear after 1 hr
Mus musculus [2] = experiment: Inhibition of PMA-induced ear edema in Swiss mouse at 3 mg/ear after 3 hrs
Mus musculus [3] = experiment: Inhibition of PMA-induced ear edema in Swiss mouse at 3 mg/ear after 5 hrs

Row | Structure (SMILES) | inhibition (INH) (Mus musculus [1]) [%] | inhibition (INH) (Mus musculus [2]) [%] | inhibition (INH) (Mus musculus [3]) [%]
1 | COc1ccc(-c2oc3cc(O)cc(O)c3c(=O)c2OC)cc1 [ERMANIN] | 95.1 | 71.1 | 78.3
2 | COc1ccc2c(c1)c(CC(=O)O)c(C)n2C(=O)c1ccc(Cl)cc1 [INDOMETHACIN] | 47.3 | 38.6 | 51.2
3 | COc1ccc(-c2oc3cc(O)c(OC)c(O)c3c(=O)c2OC)cc1 [SANTIN] | 80.5 | 76.3 | 81.1
